Data from US10040804B2, “Compounds targeting proteins, compositions, methods, and uses thereof” (BioTheryX, Inc., priority 2016, dated 2018).

Legend:
[1] = system: TNF-α; assay: TNF-α expression in LPS stimulated PBMCs (Meso Scale); format: cell-based, human; conditions: Homo sapiens, PBMC; for inhibition at 0.1 µM: compound concentration 0.1 μM
Experimental: FIGS. 7 and 9C are graphs showing TNF-a expression in LPS stimulated peripheral blood mononuclear cells (PBMCs). PBMCs were plated in 96-well plates and pretreated with compound (Compound 1-9 individually) for 1 h, and then induced with 100 ng/mL LPS for 18-24 h. Cytokines in the media were measured according to MesoScale protocol. The negative control wells were treated with DMSO. Compound activity is measured as a percentage of LPS-induced activity. “Rev” is lenalidomide.
(§1) Frozen primary blood mononuclear cells (PBMCs) and frozen CD14+ mobilized peripheral blood monocytes were purchased from AllCells. Cells were quick thawed, and washed 1-time with RPMI-1640/10% FBS/1% Penicillin/1% Streptomycin and plated in 96-well plates at 200,000 cells per well. Cells were pretreated with DMSO only, Compound 5013 (lenolidamide) or the indicated compound for 1 h and then induced with 100 ng/mL lipopolysaccharide (LPS) for 18-24 h. The supernatant was analyzed for IL-1 beta, IL-6, and TNF-α using Meso Scale assay according to manufacturer's protocol. The negative control wells were treated with DMSO.
(§2) PBMCs: AllCells PB003F, Normal Peripheral Blood MNC.
(§3) Media: RPMI 1640/10% FBS/1% Pen-Strep.

[2] = system: MDA-MB-231 cells; assay: MDA-MB-231 cell viability (CellTiter-Glo); format: cell-based; conditions: Homo sapiens, 72 h, 3 days, DMSO = 100.00; for viability at 1 µM: 1 μM compound concentration; for viability at 10 µM: 10 μM compound concentration
Experimental: (§4) Molm-13 cells were cultivated in RPMI-1640 (10% FBS/1% pen-strep) and were plated in white walled 96-well plates at 20,000 cells/well. H1048 cells were cultured in DMEM:F12 media supplemented with 5% fetal bovine serum, insulin, transferrin, sodium selenite, hydrocortisone, β-estradiol, penicillin and streptomycin, and were plated in white walled 96-well plates at 20,000 cells/well. MDA-MB-231 cells were cultured in DMEM media supplemented with 10% fetal bovine serum, penicillin and streptomycin, and were plated in white walled 96-well plates at 10,000 cells/well. Cells were treated with compound or DMSO (0.1%, control) and the cultures were incubated for 3 days at 37° C. and 5% CO2. Following the incubation period, 100 μL of CellTiterGlow (CTG) reagent (CellTiter-Glo® Luminescent Cell Viability Assay, Promega (Madison, Wis.)) was added to each well. Following a 10 min incubation with shaking, luminescence was measured using a Victor Wallac Luminometer.

[3] = system: IL-1β; assay: IL-1β expression in LPS stimulated PBMCs (Meso Scale); format: cell-based, human; conditions: Homo sapiens, PBMC; for inhibition at 0.1 µM: compound concentration 0.1 μM
Experimental: FIGS. 5 and 9A are graphs showing IL-1-beta expression in LPS stimulated peripheral blood mononuclear cells (PBMCs), PBMCs were plated in 96-well plates and pretreated with compound (Compound 1-9 individually) for 1 h, and then induced with 100 ng/mL LPS for 18-24 h. Cytokines in the media were measured according to MesoScale protocol. Negative control wells were treated with DMSO. Compound activity is measured as a percentage of LPS-induced activity. “Rev” is lenalidomide.
as §1, §2, §3

[4] = system: IL-6; assay: IL-6 expression in LPS stimulated PBMCs (Meso Scale); format: cell-based, human; conditions: Homo sapiens, PBMC, LPS-stimulated PBMCs; for inhibition at 0.1 µM: compound concentration 0.1 μM
Experimental: FIGS. 6 and 9B are graphs showing IL-6 expression in LPS stimulated peripheral blood mononuclear cells (PBMCs). PBMCs were plated in 96-well plates and pretreated with compound (Compound 1-9 individually) for 1 h, and then induced with 100 ng/mL LPS for 18-24 h. Cytokines were measured according to MesoScale protocol. Negative control wells were treated with DMSO. Compound activity was measured as a percentage of LPS-induced activity. “Rev” is lenalidomide.
as §1, §2, §3

[5] = system: H1048 cells; assay: H1048 cell viability (CellTiter-Glo); format: cell-based; conditions: Homo sapiens, NCI-H1048, 72 h, H1048, 3 days, DMSO = 100.00; for viability at 1 µM: 1 μM compound concentration; for viability at 10 µM: 10 μM compound concentration
Experimental: (§5) FIG. 10A is a graph showing antiproliferative activity in H1048 (SCLC) cells. FIG. 10B is a graph showing antiproliferative activity in Molm-13 (AML) cells. In FIGS. 10A and 10B, the cells were incubated for 72 hrs with Compound 9 at the indicated concentrations or DMSO. Compound activity was measured based on the signal from remaining viable cells.
as §4

[6] = system: Molm-13 cells; assay: Molm-13 cell viability (CellTiter-Glo); format: cell-based; conditions: Homo sapiens, MOLM-13, read-out: % Inhibition (MOLM-13 Cell Viability); for cytotoxicity at 0.1 µM: compound concentration 0.1 μM
Experimental: as §5, §4

[7] = biological target: T1, GSPT1 (Homo sapiens, UniProt P15170); assay: GSPT1 protein levels by Western Blot analysis; format: cell-based; conditions: DMSO = 100.00; for remaining activity at 0.1 µM: 100 nM compound concentration; for remaining activity at 1 µM: 1 μM compound concentration
T1 construct: Whole cell extracts were prepared using RIPA buffer according to manufacturer's protocol (Pierce); endogenous in cells
T1 sequence (P15170 whole entry): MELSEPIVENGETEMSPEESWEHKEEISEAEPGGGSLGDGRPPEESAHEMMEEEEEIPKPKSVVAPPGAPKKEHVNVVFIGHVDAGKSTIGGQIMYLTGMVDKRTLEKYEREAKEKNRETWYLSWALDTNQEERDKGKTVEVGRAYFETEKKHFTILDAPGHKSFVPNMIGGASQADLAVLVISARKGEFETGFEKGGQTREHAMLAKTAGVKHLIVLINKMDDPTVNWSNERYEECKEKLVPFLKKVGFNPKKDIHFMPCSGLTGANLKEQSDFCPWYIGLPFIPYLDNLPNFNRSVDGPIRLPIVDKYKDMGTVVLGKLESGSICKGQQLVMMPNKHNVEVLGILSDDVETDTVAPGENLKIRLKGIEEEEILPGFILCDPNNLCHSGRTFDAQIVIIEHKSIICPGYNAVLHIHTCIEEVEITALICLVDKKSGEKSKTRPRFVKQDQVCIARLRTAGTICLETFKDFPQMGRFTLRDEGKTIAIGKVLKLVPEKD
T1 sequence (Q96SW2 whole entry, further chain): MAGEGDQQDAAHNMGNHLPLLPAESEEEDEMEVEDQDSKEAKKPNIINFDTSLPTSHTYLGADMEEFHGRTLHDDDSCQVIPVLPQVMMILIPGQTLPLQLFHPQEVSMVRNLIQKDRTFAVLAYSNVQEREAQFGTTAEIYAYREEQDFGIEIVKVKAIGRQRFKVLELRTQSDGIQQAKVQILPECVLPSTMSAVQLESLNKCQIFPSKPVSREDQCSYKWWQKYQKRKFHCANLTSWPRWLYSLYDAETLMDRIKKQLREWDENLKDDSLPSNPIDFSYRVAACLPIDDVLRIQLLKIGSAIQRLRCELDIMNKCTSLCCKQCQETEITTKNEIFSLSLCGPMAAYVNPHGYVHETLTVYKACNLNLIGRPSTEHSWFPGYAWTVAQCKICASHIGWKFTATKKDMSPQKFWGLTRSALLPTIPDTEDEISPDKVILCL
T1 sequence (Q16531 whole entry partner): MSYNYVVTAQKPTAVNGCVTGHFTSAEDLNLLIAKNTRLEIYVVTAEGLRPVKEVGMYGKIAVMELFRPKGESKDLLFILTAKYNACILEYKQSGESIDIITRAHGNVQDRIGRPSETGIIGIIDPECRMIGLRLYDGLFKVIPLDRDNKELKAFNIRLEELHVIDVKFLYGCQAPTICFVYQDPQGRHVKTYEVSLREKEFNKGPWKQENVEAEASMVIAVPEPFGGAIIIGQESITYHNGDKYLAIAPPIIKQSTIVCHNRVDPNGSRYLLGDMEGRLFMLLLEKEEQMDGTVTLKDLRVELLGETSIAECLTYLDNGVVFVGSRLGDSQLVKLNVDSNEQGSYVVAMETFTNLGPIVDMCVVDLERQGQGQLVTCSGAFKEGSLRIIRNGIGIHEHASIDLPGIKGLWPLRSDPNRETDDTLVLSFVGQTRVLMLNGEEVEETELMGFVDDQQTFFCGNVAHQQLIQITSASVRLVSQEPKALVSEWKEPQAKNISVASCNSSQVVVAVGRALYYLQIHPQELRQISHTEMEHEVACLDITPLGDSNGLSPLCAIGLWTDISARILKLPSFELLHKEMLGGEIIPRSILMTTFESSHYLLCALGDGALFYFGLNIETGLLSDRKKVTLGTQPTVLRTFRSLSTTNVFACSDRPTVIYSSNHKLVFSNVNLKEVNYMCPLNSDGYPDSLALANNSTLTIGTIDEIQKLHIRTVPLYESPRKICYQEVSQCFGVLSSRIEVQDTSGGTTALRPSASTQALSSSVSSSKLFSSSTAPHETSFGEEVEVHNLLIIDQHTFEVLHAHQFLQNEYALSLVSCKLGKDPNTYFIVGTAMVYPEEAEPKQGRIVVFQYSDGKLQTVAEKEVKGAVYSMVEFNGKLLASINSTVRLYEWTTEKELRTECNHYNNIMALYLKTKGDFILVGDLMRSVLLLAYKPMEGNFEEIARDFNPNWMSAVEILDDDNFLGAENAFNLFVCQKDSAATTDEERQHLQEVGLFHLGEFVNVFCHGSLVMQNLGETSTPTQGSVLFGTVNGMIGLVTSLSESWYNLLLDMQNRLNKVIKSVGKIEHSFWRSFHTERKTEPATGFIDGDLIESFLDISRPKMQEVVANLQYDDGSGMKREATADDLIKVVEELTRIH
Experimental: Cells were lysed using RIPA Buffer (Pierce) and a Western Blot analysis was performed using anti-GSPT1 and anti-β-actin antibodies. FIG. 11B is a graph showing the expression levels of GSPT1 protein in Molm-13 (AML) cells. Protein expression levels were measured using the LiCor Odyssey instrumentation and methods.
Western Blot Protocol: Cell lines were grown in RPMI 1640 supplemented with streptomycin, penicillin and 10% fetal bovine serum.
Cells were cultured at approximately 10^6 cells per mL and incubated in DMSO or each of the indicated compounds for 6-8 h. Whole cell extracts were prepared using RIPA buffer according to manufacturer's protocol (Pierce). Briefly, 2×10^6 cells were washed once in PBS, the cell pellets were resuspended in RIPA buffer and allowed to incubate for 15 minutes on ice. Cells debris was removed by centrifugation and the cleared whole cell lysates were transferred to new tubes for further analysis.
For Western blot analysis, whole cell protein extracts were separated on 4-12% SDS-polyacrylamide gels, transferred to nitrocellulose, and probed with the indicated primary antibodies. Membranes were subsequently washed and probed with the appropriate IRDye secondary antibodies (LI-COR). The signal was detected using the Odyssey Imaging System (LI-COR).
GSPT1: Rabbit anti-GSPT1 was obtained from Abcam, ab126090 (Cambridge, Eng.)

## Cc1ccc(NC(=O)NCc2csc3c2CN([C@H]2CCCC(=O)NC2=O)C3=O)cc1Cl [Compound 45, (S)-1-(3-Chloro-4-methylphenyl)-3-((5-(2,7-dioxoazepan-3-yl)-6-oxo-5,6-dihydro-4H-thieno[2,3-c]pyrrol-3-yl)methyl)urea]
[1]; compound concentration 1 μM
  inhibition at 1 µM: 22%
[2]
  viability at 1 µM: 101%
  viability at 10 µM: 46.7%
[3]; compound concentration 1 μM
  inhibition at 1 µM: 19%
[4]; compound concentration 1 μM
  inhibition at 1 µM: 18%
[5]
  viability at 1 µM: 12.7%
  viability at 10 µM: 9.89%
[6]; compound concentration 1 μM
  cytotoxicity at 1 µM: 59%
[7]
  remaining activity at 0.1 µM: 90.3%
  remaining activity at 1 µM: 22.3%

## Cc1ccc(NC(=O)NCc2scc3c2CN(C2CCC(=O)NC2=O)C3=O)nc1Cl (centres unmarked) [Compound 46, 1-(6-Chloro-5-methylpyridin-2-yl)-3-((5-(2,6-dioxopiperidin-3-yl)-4-oxo-5,6-dihydro-4H-thieno[3,4-c]pyrrol-1-yl)methyl)urea]
[1]
  inhibition at 0.1 µM: 58%
[2]
  viability at 1 µM: 29%
  viability at 10 µM: 24.1%
[3]
  inhibition at 0.1 µM: 54%
[4]
  inhibition at 0.1 µM: 85%
[5]
  viability at 1 µM: 9.35%
  viability at 10 µM: 11.5%
[6]
  cytotoxicity at 0.1 µM: 100%
[7]
  remaining activity at 0.1 µM: 65.2%
  remaining activity at 1 µM: 4.73%

## Cc1ccc(NC(=O)NCc2scc3c2CN(C2CCC(=O)NC2=O)C3=O)cc1C(C)C (centres unmarked) [Compound 47, 1-((5-(2,6-Dioxopiperidin-3-yl)-4-oxo-5,6-dihydro-4H-thieno[3,4-c]pyrrol-1-yl)methyl)-3-(3-isopropyl-4-methylphenyl)urea]
[1]
  inhibition at 0.1 µM: 97%
[2]
  viability at 1 µM: 21.8%
  viability at 10 µM: 19.3%
[3]
  inhibition at 0.1 µM: 99%
[4]
  inhibition at 0.1 µM: 100%
[5]
  viability at 1 µM: 8.91%
  viability at 10 µM: 8.58%
[6]
  cytotoxicity at 0.1 µM: 100%
[7]
  remaining activity at 0.1 µM: 0.64%
  remaining activity at 1 µM: 2.61%

## Cc1c(Cl)cc(NC(=O)NCc2scc3c2CN(C2CCC(=O)NC2=O)C3=O)cc1C(C)C (centres unmarked) [Compound 48, 1-(3-Chloro-5-isopropyl-4-methylphenyl)-3-((5-(2,6-dioxopiperidin-3-yl)-4-oxo-5,6-dihydro-4H-thieno[3,4-c]pyrrol-1-yl)methyl)urea]
[1]
  inhibition at 0.1 µM: 92%
[2]
  viability at 1 µM: 22.2%
  viability at 10 µM: 21.7%
[3]
  inhibition at 0.1 µM: 96%
[4]
  inhibition at 0.1 µM: 100%
[5]
  viability at 1 µM: 9.03%
  viability at 10 µM: 6.89%
[6]
  cytotoxicity at 0.1 µM: 100%
[7]
  remaining activity at 0.1 µM: 1.46%
  remaining activity at 1 µM: 3.85%

## Cc1cc(C)c(NC(=O)NCc2scc3c2CN(C2CCC(=O)NC2=O)C3=O)cc1Cl (centres unmarked) [Compound 49, 1-(5-Chloro-2,4-dimethylphenyl)-3-((5-(2,6-dioxopiperidin-3-yl)-4-oxo-5,6-dihydro-4H-thieno[3,4-c]pyrrol-1-yl)methyl)urea]
[1]
  inhibition at 0.1 µM: 62%
[2]
  viability at 1 µM: 24.3%
  viability at 10 µM: 19.7%
[3]
  inhibition at 0.1 µM: 61%
[4]
  inhibition at 0.1 µM: 87%
[5]
  viability at 1 µM: 7.67%
  viability at 10 µM: 6.1%
[6]
  cytotoxicity at 0.1 µM: 100%
[7]
  remaining activity at 0.1 µM: 11.9%
  remaining activity at 1 µM: 20%

## Cc1ccc(NC(=S)NCc2scc3c2CN(C2CCC(=O)NC2=O)C3=O)cc1Cl (centres unmarked) [Compound 52, 1-(3-Chloro-4-methylphenyl)-3-((5-(2,6-dioxopiperidin-3-yl)-4-oxo-5,6-dihydro-4H-thieno[3,4-c]pyrrol-1-yl)methyl)thiourea]
[1]
  inhibition at 0.1 µM: 95%
[2]
  viability at 1 µM: 22.4%
  viability at 10 µM: 20.5%
[3]
  inhibition at 0.1 µM: 98%
[4]
  inhibition at 0.1 µM: 100%
[5]
  viability at 1 µM: 9.22%
  viability at 10 µM: 10.3%
[6]
  cytotoxicity at 0.1 µM: 99%
[7]
  remaining activity at 0.1 µM: 0.58%
  remaining activity at 1 µM: 1.05%

## Cc1ccc(NC(=O)NCc2scc3c2CN(C2CCC(=O)NC2=O)C3=O)cn1 (centres unmarked) [Compound 53, 1-((5-(2,6-Dioxopiperidin-3-yl)-4-oxo-5,6-dihydro-4H-thieno[3,4-c]pyrrol-1-yl)methyl)-3-(6-methylpyridin-3-yl)urea]
[1]
  inhibition at 0.1 µM: 65%
[2]
  viability at 1 µM: 27.6%
  viability at 10 µM: 21.3%
[3]
  inhibition at 0.1 µM: 60%
[4]
  inhibition at 0.1 µM: 90%
[5]
  viability at 1 µM: 8.51%
  viability at 10 µM: 8.09%
[6]
  cytotoxicity at 0.1 µM: 100%
[7]
  remaining activity at 0.1 µM: 23.5%
  remaining activity at 1 µM: 6.18%

## Cc1ccc(NC(=O)NCc2scc3c2CN(C2CCC(=O)NC2=O)C3=O)cc1C(F)(F)F (centres unmarked) [Compound 54, 1-((5-(2,6-Dioxopiperidin-3-yl)-4-oxo-5,6-dihydro-4H-thieno[3,4-c]pyrrol-1-yl)methyl)-3-(4-methyl-3-(trifluoromethyl)phenyl)urea]
[1]
  inhibition at 0.1 µM: 93%
[2]
  viability at 1 µM: 22.6%
  viability at 10 µM: 22.4%
[3]
  inhibition at 0.1 µM: 96%
[4]
  inhibition at 0.1 µM: 100%
[5]
  viability at 1 µM: 8.11%
  viability at 10 µM: 6.12%
[6]
  cytotoxicity at 0.1 µM: 100%
[7]
  remaining activity at 0.1 µM: 2.25%
  remaining activity at 1 µM: 2.72%
